Experiments:
ERK5 = biological target: T1, ERK5 (Homo sapiens, UniProt Q13164); assay: Probe-based (AX9989 acyl phosphate ATP probe) kinase profiling in Jurkat lysate: ERK5; format: binding; settings: for IC50: calculated from percent inhibition of AX9989 labeling and the screening concentration, Jurkat lysate; for inhibition at 0.1 µM: screening concentration 0.1 μM; for inhibition at 0.1 µM / inhibition at 1 µM: read-out: Kinase inhibition % at indicated screening concentration: ERK5; for inhibition at 1 µM: screening concentration 1.0 μM
T1 construct: screened for activity against several kinases in Jurkat cells; endogenous in cells; host or cells: Jurkat cell lysate
In short: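 Gel-filtered Jurkat lysate (5 mg/ml, 20 mM MnCl2) preincubated 15 min at room temperature with compound, then labelled with 5 μM AX9989 acyl phosphate ATP probe. Probe-labelled ERK5 active-site peptides quantified by LC/MS after trypsin digestion and streptavidin capture; IC50 calculated from percent inhibition at the screening concentration.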

AurA = biological target: T2, AurA (Homo sapiens, UniProt O14965); assay: Probe-based (AX9989) kinase profiling in Jurkat lysate: AurA; format: binding; settings: read-out: Kinase inhibition % at indicated screening concentration: AurA; for inhibition at 0.1 µM: screening concentration 0.1 μM; for inhibition at 1 µM: screening concentration 1.0 μM
T2 construct: screened for activity against several kinases in Jurkat cells; endogenous in cells; host or cells: Jurkat cell lysate
T2 sequence (O14965 1-403): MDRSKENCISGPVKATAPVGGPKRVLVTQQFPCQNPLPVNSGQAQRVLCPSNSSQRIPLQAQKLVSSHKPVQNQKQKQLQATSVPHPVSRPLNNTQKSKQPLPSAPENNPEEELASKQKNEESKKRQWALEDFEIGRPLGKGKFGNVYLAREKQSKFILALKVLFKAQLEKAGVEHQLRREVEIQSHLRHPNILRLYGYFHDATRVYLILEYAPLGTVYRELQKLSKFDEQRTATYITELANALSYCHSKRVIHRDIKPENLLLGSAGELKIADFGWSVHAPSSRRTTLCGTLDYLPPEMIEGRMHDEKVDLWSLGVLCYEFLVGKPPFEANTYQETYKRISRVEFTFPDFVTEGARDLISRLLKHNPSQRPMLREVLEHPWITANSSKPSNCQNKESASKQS
In short: (§1)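 Gel-filtered Jurkat lysate (HEPES pH 7.5, 20 mM MnCl2, 5 mg/ml) was pre-incubated 15 min with compound at room temperature, then labelled with 5 μM acyl-phosphate ATP probe AX9989. Tryptic probe-labelled active-site peptides were streptavidin-captured and quantified by LC/MS. Percent inhibition reflected the decrease in labelled-peptide intensity versus no compound.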

AurB or AurC = assay: Probe-based (AX9989) kinase profiling in Jurkat lysate: AurB or AurC; format: binding
In short: as §1

JAK1 = biological target: T3, JAK1 (Homo sapiens, UniProt P23458); assay: Probe-based (AX9989) kinase profiling in Jurkat lysate: JAK1; format: binding; settings: read-out: Kinase inhibition % at indicated screening concentration: JAK1; for inhibition at 0.1 µM: screening concentration 0.1 μM; for inhibition at 1 µM: screening concentration 1.0 μM
T3 construct: screened for activity against several kinases in Jurkat cells; endogenous in cells; host or cells: Jurkat cell lysate
In short: as §1

AMPKa1 or AMPKa2 = assay: Probe-based (AX9989) kinase profiling in Jurkat lysate: AMPKa1 or AMPKa2; format: binding
In short: as §1

TAO2 = biological target: T4, TAO2 (Homo sapiens, UniProt Q9UL54); assay: Probe-based (AX9989) kinase profiling in Jurkat lysate: TAO2; format: binding; settings: read-out: Kinase inhibition % at indicated screening concentration: TAO2; for inhibition at 0.1 µM: screening concentration 0.1 μM; for inhibition at 1 µM: screening concentration 1.0 μM
T4 construct: screened for activity against several kinases in Jurkat cells; endogenous in cells; host or cells: Jurkat cell lysate
T4 sequence (Q9UL54 1-1235): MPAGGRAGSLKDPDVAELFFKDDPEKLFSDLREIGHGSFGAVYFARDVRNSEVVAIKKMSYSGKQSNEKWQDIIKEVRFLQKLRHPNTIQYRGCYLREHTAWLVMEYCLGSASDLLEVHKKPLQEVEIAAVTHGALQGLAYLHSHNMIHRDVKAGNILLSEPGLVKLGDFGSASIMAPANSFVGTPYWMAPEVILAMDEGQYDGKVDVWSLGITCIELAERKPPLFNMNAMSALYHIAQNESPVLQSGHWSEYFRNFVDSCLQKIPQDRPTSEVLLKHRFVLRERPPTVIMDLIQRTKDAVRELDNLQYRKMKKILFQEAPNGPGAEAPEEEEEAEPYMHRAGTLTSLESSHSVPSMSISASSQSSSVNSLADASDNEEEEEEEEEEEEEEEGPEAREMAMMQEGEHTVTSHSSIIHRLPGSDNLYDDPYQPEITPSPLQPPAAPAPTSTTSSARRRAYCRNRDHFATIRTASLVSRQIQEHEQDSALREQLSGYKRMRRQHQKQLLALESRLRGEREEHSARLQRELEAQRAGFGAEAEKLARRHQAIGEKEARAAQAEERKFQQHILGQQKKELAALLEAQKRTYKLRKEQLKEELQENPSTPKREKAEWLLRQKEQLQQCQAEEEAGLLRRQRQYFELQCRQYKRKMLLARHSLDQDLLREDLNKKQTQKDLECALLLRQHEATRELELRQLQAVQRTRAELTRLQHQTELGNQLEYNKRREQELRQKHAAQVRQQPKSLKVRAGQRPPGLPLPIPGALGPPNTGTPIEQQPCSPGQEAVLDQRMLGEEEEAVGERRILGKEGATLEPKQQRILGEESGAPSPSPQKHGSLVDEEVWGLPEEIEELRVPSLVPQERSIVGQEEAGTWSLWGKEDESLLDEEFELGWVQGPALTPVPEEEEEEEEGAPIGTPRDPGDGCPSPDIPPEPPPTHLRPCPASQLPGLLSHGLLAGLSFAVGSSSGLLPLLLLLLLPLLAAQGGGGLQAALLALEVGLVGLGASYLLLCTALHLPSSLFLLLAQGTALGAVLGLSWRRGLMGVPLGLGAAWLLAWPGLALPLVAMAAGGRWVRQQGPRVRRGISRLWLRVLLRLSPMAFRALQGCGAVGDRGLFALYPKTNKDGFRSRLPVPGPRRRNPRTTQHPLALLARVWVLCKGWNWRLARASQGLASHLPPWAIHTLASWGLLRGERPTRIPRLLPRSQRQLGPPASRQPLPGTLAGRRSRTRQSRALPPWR
In short: as §1

ACK = biological target: T5, ACK (Homo sapiens, UniProt Q07912); assay: Probe-based (AX9989) kinase profiling in Jurkat lysate: ACK; format: binding; settings: read-out: Kinase inhibition % at indicated screening concentration: ACK; for inhibition at 0.1 µM: screening concentration 0.1 μM; for inhibition at 1 µM: screening concentration 1.0 μM
T5 construct: screened for activity against several kinases in Jurkat cells; endogenous in cells; host or cells: Jurkat cell lysate
In short: as §1

ABL or ARG = assay: Probe-based (AX9989) kinase profiling in Jurkat lysate: ABL or ARG; format: binding
In short: as §1

human PBMCs = assay: Human PBMC TNF-α response to endotoxin (ELISA); format: cell-based; settings: 0.1 μg/ml LPS 16 h, read-out: EC50 for the inhibition of the human PBMC TNF-α response to endotoxin, ave. ± S.D.
Procedure: Human PBMCs (Astarte Biologics, Redmond, Wash.) were seeded at 2e6 cells/ml in RPMI 1640 containing 10% (v/v) charcoal-dextran treated, heat inactivated FBS (Omega Scientific, Tarzana, Calif.), 0.05 mM 2-Mercaptoethanol (Sigma-Aldrich, St. Louis, Mo.), and 1×Pen/Strep Amphotericin B (Lonza, Allendale, N.J.). Cells were pre-treated with test compounds (10 μM down by ⅕ in a 4-point serial dilution series) for 1 h at 37° C. in a humidified atmosphere at 5% CO2. Cells were then stimulated with 0.1 μg/ml lipopolysaccharide (LPS) from E. coli 0111:B4 (EMD Millipore, Billerica, Mass.) for 16 h at 37° C. in a humidified atmosphere at 5% CO2. Supernatant was collected and a 25-fold dilution was analyzed for TNF-α concentration using an ELISA kit from Life Technologies (Grand Island, N.Y.) according to the manufacturer's instructions. Absorbance at 450 nm was read using the Synergy 2 multi-detection microplate reader (BioTek Instruments, Winooski, Vt.).

T1 sequence (Q13164 whole entry): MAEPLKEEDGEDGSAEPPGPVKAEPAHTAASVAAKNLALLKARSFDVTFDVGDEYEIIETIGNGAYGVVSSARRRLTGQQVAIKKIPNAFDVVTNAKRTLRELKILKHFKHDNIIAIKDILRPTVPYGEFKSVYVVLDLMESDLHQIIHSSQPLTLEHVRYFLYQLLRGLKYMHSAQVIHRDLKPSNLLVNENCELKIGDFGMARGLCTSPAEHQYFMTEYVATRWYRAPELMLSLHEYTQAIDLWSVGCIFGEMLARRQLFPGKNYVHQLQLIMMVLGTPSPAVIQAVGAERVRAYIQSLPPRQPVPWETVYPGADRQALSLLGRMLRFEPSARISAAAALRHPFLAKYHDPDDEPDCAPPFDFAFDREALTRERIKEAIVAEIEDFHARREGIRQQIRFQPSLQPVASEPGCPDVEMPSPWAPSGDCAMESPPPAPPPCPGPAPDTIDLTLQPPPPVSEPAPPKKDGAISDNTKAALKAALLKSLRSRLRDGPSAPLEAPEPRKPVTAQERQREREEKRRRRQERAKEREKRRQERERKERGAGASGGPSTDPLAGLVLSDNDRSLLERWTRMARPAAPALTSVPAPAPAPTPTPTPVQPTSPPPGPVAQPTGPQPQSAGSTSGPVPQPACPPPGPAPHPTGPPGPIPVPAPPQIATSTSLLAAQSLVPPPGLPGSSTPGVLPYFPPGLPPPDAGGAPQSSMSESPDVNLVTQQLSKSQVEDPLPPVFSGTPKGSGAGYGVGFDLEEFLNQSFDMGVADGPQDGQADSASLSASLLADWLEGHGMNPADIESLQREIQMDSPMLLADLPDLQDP
T3 sequence (P23458 whole entry): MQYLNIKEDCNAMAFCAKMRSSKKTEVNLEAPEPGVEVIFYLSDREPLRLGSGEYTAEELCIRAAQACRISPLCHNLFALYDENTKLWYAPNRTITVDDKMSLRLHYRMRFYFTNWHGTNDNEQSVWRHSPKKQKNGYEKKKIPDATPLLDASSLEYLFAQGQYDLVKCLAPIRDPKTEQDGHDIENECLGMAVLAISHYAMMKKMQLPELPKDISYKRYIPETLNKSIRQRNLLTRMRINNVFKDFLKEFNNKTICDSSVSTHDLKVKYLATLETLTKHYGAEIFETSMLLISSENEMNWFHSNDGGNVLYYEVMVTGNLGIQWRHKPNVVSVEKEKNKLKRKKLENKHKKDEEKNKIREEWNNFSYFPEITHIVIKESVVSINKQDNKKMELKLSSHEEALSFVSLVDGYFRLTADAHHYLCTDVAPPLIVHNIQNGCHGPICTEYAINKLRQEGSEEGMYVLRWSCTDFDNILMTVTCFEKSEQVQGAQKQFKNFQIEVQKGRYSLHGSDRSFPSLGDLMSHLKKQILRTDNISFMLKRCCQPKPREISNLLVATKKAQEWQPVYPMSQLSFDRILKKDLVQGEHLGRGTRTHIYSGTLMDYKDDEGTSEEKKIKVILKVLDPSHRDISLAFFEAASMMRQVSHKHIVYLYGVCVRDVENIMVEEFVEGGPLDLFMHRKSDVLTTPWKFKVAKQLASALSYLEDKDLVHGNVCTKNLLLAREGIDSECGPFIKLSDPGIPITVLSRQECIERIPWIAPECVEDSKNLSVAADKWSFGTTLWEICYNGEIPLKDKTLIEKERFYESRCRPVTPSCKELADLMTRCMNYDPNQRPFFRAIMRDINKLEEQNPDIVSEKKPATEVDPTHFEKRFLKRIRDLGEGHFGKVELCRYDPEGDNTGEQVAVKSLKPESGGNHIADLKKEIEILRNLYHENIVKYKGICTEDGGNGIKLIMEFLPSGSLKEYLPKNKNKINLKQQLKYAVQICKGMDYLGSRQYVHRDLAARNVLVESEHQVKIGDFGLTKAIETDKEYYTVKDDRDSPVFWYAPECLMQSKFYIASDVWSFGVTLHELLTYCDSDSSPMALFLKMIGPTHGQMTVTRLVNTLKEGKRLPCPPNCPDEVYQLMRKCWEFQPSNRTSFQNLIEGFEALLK
T5 sequence (Q07912 whole entry): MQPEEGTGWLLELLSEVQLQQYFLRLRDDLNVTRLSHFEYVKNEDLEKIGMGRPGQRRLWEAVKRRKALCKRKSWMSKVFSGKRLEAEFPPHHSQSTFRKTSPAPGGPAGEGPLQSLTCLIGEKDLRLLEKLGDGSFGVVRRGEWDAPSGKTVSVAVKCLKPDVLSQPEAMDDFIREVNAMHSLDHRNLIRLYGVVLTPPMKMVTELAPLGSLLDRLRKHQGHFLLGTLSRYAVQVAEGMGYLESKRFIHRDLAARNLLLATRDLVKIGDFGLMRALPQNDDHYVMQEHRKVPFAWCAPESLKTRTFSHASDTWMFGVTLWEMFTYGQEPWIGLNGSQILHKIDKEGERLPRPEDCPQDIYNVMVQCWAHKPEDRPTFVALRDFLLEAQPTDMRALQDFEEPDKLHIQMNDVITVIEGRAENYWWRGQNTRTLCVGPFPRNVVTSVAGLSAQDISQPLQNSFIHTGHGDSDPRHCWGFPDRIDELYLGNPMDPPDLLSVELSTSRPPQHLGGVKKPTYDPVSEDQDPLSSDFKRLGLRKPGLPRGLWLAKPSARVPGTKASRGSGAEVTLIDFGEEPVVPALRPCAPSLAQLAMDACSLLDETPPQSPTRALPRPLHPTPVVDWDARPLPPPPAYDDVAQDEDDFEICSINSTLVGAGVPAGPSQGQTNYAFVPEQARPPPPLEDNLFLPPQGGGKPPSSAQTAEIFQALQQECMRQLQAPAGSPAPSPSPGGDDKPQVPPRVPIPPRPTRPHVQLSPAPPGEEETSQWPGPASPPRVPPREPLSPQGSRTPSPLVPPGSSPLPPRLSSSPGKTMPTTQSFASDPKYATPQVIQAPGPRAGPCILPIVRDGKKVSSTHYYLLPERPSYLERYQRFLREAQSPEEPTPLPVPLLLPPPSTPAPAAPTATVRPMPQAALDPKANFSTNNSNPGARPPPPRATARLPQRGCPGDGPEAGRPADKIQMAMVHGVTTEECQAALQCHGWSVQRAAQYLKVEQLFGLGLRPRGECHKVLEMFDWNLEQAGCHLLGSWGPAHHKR

Row | Compound | IC50 (ERK5) [nM] | inhibition at 0.1 µM (ERK5) [%] | inhibition at 0.1 µM (AurA) [%] | Kinase inhibition % at indicated screening concentration: AurB or AurC (AurB or AurC; screening concentration 0.1 μM) | inhibition at 0.1 µM (JAK1) [%] | Kinase inhibition % at indicated screening concentration: AMPKa1 or AMPKa2 (AMPKa1 or AMPKa2; screening concentration 0.1 μM) | inhibition at 0.1 µM (TAO2) [%] | inhibition at 0.1 µM (ACK) [%] | Kinase inhibition % at indicated screening concentration: ABL or ARG (ABL or ARG; screening concentration 0.1 μM) | EC50 (human PBMCs) [µM] | inhibition at 1 µM (ERK5) [%] | inhibition at 1 µM (AurA) [%] | Kinase inhibition % at indicated screening concentration: AurB or AurC (AurB or AurC; screening concentration 1.0 μM) | inhibition at 1 µM (JAK1) [%] | Kinase inhibition % at indicated screening concentration: AMPKa1 or AMPKa2 (AMPKa1 or AMPKa2; screening concentration 1.0 μM) | inhibition at 1 µM (TAO2) [%] | inhibition at 1 µM (ACK) [%] | Kinase inhibition % at indicated screening concentration: ABL or ARG (ABL or ARG; screening concentration 1.0 μM)
1 | CCOc1cc(C(=O)N2CCC(N)C2)ccc1Nc1cc2c(cn1)N(C)C(=O)c1occc1N2C (centres unmarked) [Compound 11] | ≤ 50 | > 90 | ≤ 35 | E (E is ≦35%) | ≤ 35 | E (E is ≦35%) | ≤ 35 | ≤ 35 | E (E is ≦35%) | 2.52 | – | – | – | – | – | – | – | –
2 | COc1cccnc1Nc1cc2c(cn1)N(C)C(=O)c1ccccc1N2C [Compound 14] | > 500 | – | – | – | – | – | – | – | – | 2.85 | > 90 | ≤ 35 | E (E is ≦35%) | ≤ 35 | E (E is ≦35%) | ≤ 35 | ≤ 35 | E (E is ≦35%)
3 | CCN(CC)CCNC(=O)c1ccc(OC)c(Nc2cc3c(cn2)N(C)C(=O)c2ccccc2N3C)c1 [Compound 16] | 101 to 500 | – | – | – | – | – | – | – | – | 1.87 | 75 to 90 | ≤ 35 | E (E is ≦35%) | ≤ 35 | E (E is ≦35%) | ≤ 35 | ≤ 35 | E (E is ≦35%)
4 | Cc1cc(C(=O)N2CC[C@@H](N(C)C)C2)ccc1Nc1cc2c(cn1)N(C)C(=O)c1ccccc1N2C [Compound 32] | ≤ 50 | 75 to 90 | ≤ 35 | E (E is ≦35%) | ≤ 35 | E (E is ≦35%) | ≤ 35 | ≤ 35 | E (E is ≦35%) | 6.36 | – | – | – | – | – | – | – | –
5 | CCOc1cc(C(=O)N2CCC(c3c[nH]cn3)CC2)ccc1Nc1cc2c(cn1)N(C)C(=O)c1ccccc1N2C [Compound 35] | 101 to 500 | 35 to 50 | ≤ 35 | E (E is ≦35%) | ≤ 35 | E (E is ≦35%) | ≤ 35 | ≤ 35 | E (E is ≦35%) | 6 | – | – | – | – | – | – | – | –
6 | COc1ccc(Nc2cc3c(cn2)N(C)C(=O)c2ccccc2N3C)c(C)c1 [Compound 41] | 101 to 500 | – | – | – | – | – | – | – | – | 7.61 | 75 to 90 | ≤ 35 | E (E is ≦35%) | ≤ 35 | E (E is ≦35%) | ≤ 35 | ≤ 35 | E (E is ≦35%)
7 | CCOc1cc(C(=O)N2CCN(C(=O)OC(C)(C)C)C[C@@H]2C)ccc1Nc1cc2c(cn1)N(C)C(=O)c1ccccc1N2C [Compound 50] | 101 to 500 | 35 to 50 | ≤ 35 | E (E is ≦35%) | ≤ 35 | E (E is ≦35%) | ≤ 35 | ≤ 35 | E (E is ≦35%) | 2.58 | – | – | – | – | – | – | – | –
8 | Cc1c(Nc2cc3c(cn2)N(C)C(=O)c2ccccc2N3C)cnn1C [Compound 59] | 101 to 500 | – | – | – | – | – | – | – | – | 5.84 | 75 to 90 | ≤ 35 | E (E is ≦35%) | ≤ 35 | E (E is ≦35%) | ≤ 35 | ≤ 35 | E (E is ≦35%)

From patent US20170008888A1 (KYORIN PHARMACEUTICAL CO., LTD., priority 2014, published 2017)
